The target in assay [1] is Histone acetyltransferase p300 (Homo sapiens) (UniProt Q09472). The settings on record: dose 10.0 µM.
The target in assay [2] is Bromodomain adjacent to zinc finger domain protein 2B (Homo sapiens) (UniProt Q9UIF8). The settings on record: dose 10.0 µM.
For assay [3], the target named is Histamine H1 receptor (Homo sapiens) (UniProt P35367). Put plainly: Binding affinity to H1 receptor (unknown origin) assessed as specific binding at 10 uM relative to control.
For assay [4], the target named is ATPase family AAA domain-containing protein 2 (Homo sapiens) (UniProt Q6PL18). The settings on record: dose 10.0 µM.
For assay [5], the species on record is Homo sapiens. The settings on record: dose 10.0 µM.
The species entered for assay [6] is Homo sapiens. The settings on record: dose 10.0 µM. This is another data set of the same source.
In assay [7] the target is Bromodomain-containing protein 7 (Homo sapiens) (UniProt Q9NPI1). The following applies: dose 10.0 µM.
The target of another assay is T1, Peregrin (Homo sapiens) (UniProt P55201).
T1 sequence (whole entry): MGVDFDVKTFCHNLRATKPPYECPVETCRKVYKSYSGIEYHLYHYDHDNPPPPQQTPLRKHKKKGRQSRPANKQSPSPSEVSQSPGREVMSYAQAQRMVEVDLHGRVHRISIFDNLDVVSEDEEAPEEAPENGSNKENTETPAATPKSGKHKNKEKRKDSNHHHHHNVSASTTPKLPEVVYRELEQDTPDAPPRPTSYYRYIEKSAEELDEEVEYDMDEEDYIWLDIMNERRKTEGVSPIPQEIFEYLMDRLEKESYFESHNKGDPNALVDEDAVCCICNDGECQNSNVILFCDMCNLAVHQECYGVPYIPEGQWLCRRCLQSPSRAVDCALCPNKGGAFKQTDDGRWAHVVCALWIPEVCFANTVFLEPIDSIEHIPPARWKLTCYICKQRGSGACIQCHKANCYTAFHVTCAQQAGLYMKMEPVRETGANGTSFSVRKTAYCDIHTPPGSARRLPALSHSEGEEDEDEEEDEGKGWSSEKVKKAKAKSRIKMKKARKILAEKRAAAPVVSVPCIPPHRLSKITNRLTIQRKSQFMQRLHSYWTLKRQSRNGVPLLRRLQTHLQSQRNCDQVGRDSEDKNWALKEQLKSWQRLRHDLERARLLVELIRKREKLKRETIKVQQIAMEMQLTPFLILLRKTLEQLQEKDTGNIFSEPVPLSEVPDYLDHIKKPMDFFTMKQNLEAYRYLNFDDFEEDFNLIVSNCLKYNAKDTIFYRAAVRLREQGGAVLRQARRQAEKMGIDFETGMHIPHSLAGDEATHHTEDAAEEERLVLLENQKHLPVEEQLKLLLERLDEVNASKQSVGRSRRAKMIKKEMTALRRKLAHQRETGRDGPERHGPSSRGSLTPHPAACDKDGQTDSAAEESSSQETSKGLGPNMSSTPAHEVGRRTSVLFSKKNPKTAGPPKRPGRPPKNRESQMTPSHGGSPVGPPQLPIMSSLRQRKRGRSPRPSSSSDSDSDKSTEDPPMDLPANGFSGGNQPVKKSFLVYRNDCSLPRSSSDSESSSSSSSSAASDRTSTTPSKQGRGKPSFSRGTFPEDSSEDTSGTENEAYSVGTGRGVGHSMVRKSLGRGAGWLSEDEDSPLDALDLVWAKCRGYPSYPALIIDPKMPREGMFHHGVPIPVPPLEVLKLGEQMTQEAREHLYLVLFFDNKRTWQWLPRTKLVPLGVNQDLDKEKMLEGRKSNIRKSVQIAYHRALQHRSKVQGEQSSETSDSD
The settings on record: dose 10.0 µM.

Assay [8] concerns the target T2, Bromodomain and PHD finger-containing protein 3 (Homo sapiens) (UniProt Q9ULD4).
T2 sequence (whole entry): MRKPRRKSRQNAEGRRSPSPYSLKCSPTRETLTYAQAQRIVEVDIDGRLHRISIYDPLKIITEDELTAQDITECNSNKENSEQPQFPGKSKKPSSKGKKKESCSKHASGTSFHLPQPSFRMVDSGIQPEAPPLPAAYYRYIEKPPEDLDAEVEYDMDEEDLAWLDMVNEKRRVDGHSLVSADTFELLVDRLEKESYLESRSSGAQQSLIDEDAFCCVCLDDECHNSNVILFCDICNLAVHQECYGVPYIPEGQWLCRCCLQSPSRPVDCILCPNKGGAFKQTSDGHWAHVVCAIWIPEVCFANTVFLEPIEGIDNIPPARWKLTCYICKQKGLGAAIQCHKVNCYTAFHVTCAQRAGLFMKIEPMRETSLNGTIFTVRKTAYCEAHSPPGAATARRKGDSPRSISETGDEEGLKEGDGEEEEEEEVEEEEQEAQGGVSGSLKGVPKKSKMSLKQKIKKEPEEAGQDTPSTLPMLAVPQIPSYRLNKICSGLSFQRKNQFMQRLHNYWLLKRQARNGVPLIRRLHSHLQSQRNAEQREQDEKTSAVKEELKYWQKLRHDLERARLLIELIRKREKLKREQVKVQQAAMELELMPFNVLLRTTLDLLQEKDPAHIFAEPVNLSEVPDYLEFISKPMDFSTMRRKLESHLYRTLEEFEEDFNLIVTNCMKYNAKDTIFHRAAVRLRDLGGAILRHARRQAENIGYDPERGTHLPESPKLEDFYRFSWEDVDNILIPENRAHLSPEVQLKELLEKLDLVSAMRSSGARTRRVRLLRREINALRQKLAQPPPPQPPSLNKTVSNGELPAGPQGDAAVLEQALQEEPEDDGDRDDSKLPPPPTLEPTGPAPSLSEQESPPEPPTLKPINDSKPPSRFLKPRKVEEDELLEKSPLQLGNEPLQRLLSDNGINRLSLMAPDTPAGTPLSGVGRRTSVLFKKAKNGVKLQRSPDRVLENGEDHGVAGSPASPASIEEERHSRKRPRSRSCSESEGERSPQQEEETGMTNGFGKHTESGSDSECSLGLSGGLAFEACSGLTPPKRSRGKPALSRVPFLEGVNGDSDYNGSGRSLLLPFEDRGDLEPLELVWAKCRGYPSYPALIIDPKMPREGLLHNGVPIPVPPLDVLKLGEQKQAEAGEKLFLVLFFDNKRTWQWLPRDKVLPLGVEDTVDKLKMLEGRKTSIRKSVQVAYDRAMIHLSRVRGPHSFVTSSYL
Put plainly: Binding affinity to BRPF3 (unknown origin) assessed as change in entropy at 12 uM by Isothermal titration calorimetry.

Assay [9] concerns the target Histone acetyltransferase KAT2B (Homo sapiens) (UniProt Q92831). The settings on record: dose 10.0 µM.

Bromodomain adjacent to zinc finger domain protein 2B (Homo sapiens), sequence (Q9UIF8 whole entry, the tested form may be a part): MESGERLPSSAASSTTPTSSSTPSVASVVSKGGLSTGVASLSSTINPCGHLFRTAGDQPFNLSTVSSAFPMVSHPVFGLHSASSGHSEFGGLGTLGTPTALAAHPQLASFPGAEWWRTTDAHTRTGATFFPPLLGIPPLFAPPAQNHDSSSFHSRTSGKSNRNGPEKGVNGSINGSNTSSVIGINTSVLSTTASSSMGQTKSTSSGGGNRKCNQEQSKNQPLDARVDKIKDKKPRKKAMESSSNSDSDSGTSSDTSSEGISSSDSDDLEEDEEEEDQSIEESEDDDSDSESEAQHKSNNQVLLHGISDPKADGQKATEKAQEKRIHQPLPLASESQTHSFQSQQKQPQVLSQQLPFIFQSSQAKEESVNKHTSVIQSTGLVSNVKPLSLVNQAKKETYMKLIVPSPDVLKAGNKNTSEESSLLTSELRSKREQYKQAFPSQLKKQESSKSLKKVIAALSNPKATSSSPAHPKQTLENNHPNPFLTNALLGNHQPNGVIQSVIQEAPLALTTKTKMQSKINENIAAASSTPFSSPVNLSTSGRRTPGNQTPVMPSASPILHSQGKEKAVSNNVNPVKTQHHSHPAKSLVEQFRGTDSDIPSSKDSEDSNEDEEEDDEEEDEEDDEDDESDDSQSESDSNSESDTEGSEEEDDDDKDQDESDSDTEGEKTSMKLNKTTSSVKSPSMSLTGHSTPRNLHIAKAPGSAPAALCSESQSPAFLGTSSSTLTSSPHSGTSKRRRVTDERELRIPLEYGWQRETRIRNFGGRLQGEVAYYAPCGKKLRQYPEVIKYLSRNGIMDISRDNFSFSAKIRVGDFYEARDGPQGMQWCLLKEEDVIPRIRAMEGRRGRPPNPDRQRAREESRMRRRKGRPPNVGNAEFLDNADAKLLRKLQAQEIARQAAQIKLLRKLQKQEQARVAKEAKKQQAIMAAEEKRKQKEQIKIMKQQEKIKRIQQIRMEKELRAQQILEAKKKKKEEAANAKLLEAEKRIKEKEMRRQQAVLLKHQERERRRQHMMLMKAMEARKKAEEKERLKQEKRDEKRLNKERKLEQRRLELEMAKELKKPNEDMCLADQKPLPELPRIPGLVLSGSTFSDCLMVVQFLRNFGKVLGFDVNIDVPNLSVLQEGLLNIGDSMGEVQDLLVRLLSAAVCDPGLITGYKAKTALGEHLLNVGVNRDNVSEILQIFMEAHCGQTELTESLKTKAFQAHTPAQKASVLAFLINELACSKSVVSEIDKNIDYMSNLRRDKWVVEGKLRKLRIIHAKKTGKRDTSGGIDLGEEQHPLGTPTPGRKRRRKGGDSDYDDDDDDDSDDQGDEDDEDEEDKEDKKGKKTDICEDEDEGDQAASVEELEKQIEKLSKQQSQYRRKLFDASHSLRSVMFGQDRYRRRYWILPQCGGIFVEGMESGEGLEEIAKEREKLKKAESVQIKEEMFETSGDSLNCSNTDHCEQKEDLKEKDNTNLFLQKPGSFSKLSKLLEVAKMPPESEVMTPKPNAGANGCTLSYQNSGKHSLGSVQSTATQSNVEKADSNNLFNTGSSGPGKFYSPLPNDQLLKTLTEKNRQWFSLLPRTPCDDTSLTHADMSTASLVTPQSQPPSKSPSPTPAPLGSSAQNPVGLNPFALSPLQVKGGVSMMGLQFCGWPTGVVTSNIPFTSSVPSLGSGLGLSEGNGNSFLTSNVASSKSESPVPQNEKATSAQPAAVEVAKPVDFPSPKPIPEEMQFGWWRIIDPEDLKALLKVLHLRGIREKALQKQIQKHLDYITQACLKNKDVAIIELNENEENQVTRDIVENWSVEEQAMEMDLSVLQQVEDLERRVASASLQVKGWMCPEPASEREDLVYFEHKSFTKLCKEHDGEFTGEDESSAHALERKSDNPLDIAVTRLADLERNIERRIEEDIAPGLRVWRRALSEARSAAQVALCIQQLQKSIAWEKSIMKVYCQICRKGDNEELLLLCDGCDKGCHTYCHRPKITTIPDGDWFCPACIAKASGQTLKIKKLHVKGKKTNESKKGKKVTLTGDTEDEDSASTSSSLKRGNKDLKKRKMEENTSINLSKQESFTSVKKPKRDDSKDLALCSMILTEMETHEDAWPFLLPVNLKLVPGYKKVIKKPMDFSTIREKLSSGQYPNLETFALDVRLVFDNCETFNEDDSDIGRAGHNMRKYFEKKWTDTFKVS
ATPase family AAA domain-containing protein 2 (Homo sapiens), sequence (Q6PL18 whole entry, the tested form may be a part): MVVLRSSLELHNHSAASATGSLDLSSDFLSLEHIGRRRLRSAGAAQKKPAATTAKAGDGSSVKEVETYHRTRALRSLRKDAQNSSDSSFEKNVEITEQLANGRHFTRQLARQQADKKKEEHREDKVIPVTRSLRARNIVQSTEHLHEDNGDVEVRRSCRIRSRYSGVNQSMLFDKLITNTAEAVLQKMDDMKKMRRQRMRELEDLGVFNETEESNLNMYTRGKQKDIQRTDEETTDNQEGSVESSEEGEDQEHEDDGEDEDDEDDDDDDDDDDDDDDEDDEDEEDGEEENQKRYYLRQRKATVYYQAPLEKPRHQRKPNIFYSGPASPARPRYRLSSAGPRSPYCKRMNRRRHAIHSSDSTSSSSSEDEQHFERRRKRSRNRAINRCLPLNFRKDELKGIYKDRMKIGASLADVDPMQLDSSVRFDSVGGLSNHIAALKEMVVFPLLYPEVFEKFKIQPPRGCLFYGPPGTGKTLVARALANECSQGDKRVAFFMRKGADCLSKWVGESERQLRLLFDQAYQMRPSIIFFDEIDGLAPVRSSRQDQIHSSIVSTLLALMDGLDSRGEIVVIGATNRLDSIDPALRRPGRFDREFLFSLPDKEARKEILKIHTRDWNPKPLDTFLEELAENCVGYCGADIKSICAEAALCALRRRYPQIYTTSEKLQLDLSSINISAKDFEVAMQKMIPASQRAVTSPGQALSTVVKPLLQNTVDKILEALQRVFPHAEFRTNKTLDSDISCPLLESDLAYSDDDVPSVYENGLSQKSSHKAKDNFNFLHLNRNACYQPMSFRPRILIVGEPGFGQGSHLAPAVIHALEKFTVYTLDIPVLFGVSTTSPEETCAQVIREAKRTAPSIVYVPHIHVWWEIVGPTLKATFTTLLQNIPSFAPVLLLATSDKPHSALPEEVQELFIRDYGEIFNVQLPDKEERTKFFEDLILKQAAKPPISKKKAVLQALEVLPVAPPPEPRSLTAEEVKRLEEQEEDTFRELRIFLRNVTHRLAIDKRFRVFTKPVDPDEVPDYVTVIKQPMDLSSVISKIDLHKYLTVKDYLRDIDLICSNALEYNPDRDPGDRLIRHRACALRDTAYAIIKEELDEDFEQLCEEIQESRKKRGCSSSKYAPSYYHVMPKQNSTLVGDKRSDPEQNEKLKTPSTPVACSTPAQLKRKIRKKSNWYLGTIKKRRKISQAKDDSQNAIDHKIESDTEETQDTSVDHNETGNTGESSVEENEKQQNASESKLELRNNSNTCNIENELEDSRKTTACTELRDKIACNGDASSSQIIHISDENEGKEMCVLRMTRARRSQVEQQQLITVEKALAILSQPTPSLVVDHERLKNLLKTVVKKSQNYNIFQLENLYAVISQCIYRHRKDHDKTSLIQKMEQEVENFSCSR
Histone acetyltransferase KAT2B (Homo sapiens), sequence (Q92831 whole entry, looked up): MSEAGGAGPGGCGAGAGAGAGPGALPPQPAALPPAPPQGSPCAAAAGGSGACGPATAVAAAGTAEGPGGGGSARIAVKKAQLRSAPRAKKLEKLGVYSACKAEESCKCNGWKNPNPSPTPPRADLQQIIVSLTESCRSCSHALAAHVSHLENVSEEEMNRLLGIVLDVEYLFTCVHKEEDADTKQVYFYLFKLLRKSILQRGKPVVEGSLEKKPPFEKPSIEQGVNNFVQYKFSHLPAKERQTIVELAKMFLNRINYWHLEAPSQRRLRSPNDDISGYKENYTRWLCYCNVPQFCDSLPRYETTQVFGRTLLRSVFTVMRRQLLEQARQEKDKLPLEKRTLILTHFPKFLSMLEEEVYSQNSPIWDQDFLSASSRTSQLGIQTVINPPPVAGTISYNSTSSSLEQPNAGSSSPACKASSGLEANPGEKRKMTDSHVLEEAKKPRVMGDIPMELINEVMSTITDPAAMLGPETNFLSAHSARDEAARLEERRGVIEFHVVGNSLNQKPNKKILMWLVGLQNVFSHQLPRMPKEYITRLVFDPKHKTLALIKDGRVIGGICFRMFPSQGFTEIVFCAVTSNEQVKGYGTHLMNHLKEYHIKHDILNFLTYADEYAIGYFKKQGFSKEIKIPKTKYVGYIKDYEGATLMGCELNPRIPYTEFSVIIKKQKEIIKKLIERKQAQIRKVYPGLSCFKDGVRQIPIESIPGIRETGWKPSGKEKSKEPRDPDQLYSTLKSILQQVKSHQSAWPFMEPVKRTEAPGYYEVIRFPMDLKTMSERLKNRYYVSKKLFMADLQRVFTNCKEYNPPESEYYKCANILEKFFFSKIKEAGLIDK
Histamine H1 receptor (Homo sapiens), sequence (P35367 whole entry, the tested form may be a part): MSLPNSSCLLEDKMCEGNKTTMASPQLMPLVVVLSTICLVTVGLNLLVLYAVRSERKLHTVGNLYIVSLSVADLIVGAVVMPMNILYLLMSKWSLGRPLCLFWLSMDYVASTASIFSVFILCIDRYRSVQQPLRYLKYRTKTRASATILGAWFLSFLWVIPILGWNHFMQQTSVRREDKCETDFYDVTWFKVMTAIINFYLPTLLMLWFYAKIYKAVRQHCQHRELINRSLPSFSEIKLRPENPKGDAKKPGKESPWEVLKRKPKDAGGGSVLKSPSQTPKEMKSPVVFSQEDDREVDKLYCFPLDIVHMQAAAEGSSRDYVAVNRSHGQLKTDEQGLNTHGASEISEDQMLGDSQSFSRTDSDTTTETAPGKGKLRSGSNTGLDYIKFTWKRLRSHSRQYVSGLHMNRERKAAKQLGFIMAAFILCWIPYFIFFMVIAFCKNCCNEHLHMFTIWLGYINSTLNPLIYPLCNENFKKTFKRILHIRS

In general, ΔTm refers to the shift of the melting midpoint relative to a reference. Turning to `COc1cc2c(cc1NS(=O)(=O)c1ccc(Br)cc1C)n(C)c(=O)n2C`, the ΔTm was 0.7 °C in assay [1]; 0.9 °C in assay [2]; 0.14 °C in assay [4]; 0.2 °C in the assay listed under Homo sapiens [5]; -0.4 °C in the assay filed under Homo sapiens [6]; 1.2 °C in assay [7]. For the same compound, the ΔTm is 6.5 °C on Peregrin (Homo sapiens) and 0.3 °C in [9]. The Activity in [3] was 96.8%. In addition, the deltaS in [8] is 0.002 kcal/mol/K.
